From paper PMC6457333 (Chemical Science, 2019)

Target: N. europaea cyt P460 (Nitrosomonas europaea, UniProt Q50927)
Assay: biochemical

Sequence of N. europaea cyt P460 (Q50927 27-198): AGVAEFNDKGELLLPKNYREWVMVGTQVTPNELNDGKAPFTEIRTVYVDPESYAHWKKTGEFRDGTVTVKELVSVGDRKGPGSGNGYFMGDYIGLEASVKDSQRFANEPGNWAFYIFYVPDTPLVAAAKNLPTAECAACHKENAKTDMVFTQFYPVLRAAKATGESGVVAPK

Compound: NO [hydroxylamine]
- Kd: 9 ± 1 mM
